Measured values reported in paper PMC3446968 (PLoS ONE, 2012).
Where two headings read alike, the source gives them in different places. No end group written: not given here.

Tests used:
human Sirt5 [1] = molecular target: T1, human Sirt5 (Homo sapiens, UniProt Q9NXA8); test: Binding analysis by microscale thermophoresis, Sirt5
T1 construct: (residues 34- 302); 6x His tag with TEV protease cleavage site (N); made in house; host or cells: E. coli BL21DE3 Rosetta 2
T1 sequence (Q9NXA8 34-302): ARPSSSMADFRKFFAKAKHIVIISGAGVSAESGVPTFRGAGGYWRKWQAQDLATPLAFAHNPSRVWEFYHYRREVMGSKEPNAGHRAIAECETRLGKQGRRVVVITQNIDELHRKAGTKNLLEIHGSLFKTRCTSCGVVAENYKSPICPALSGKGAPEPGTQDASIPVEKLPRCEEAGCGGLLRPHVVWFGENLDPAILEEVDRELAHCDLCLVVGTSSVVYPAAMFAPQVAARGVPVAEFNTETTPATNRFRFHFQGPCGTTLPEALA
Protocol: For labeling, 100 µM Sirtuin were incubated with 200 µM fluorescein isothiocyanate (Thermo Fisher) in 20 mM HEPES pH 7.5, 150 mM NaCl over night at 4°C in the dark. Non-bound dye was removed using a Nap25 column (GE Healthcare). Dissociation constants were determined from microscale thermophoresis using a Monolith NT.115 (NanoTemper Technologies, Munich, Germany). […] Dissociation constants were determined by non-linear fitting in GraFit.

Sirt3 = conditions: read-out: KM apparent affinity for cosubstrate; cited from earlier work
human Sirt3 = molecular target: T2, human Sirt3 (Homo sapiens, UniProt Q9NTG7); test: Binding analysis by microscale thermophoresis, Sirt3
T2 construct: human Sirt3 (residues 114-380); 6x His tag with TEV protease cleavage site (N); made in house; host or cells: E. coli BL21DE3 Rosetta 2
T2 sequence (Q9NTG7 114-380): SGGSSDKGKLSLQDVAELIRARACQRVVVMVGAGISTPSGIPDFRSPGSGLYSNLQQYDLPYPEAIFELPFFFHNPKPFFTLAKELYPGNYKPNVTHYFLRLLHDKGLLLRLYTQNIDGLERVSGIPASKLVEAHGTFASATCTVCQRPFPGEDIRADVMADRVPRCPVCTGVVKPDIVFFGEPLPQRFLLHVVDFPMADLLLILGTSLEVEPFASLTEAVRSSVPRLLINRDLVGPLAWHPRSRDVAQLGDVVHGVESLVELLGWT
Protocol: Non-bound dye was removed using a Nap25 column (GE Healthcare). Dissociation constants were determined from microscale thermophoresis using a Monolith NT.115 (NanoTemper Technologies, Munich, Germany). […] Dissociation constants were determined by non-linear fitting in GraFit.

Sir2Af2 = molecular target: T3, Sir2Af2 (Archaeoglobus fulgidus, UniProt O30124); test: MS-based peptide deacylation assay, Sir2Af2 wt; format: biochemical; conditions: for IC50: IC50 nicotinamide inhibition; for normalized desuccinylation [%]: succinylated Prx1-Lys197
T3 construct: host or cells: E. coli BL21DE3 Rosetta2
T3 sequence (O30124 1-253): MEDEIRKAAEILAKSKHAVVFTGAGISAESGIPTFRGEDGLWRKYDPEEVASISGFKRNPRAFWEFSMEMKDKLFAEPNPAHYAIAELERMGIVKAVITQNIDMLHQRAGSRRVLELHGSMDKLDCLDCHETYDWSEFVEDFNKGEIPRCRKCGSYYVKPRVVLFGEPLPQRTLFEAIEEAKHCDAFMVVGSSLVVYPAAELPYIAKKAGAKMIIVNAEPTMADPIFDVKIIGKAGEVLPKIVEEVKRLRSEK
Protocol: (§1) Samples were diluted with 0.1% formic acid and filtered using 10 kDa cutoff concentrators. Samples were analyzed on an LC-ESI-MS system consisting of a Prominence HPLC (Shimadzu, Duisburg, Germany) with Sil20AC autosampler connected to an LTQ XL mass spectrometer (Thermo Fisher, Bremen, Germany). […] Extracted ion chromatograms (XICs) with mass windows of ±2 m/z were generated for the acylated and deacylated peptide, and peak areas were determined using automatic peak area detection of the Xcalibur Qual Browser module and further analyzed with Excel (Microsoft, Seattle, USA) or GraFit (Erithacus Software, West Sussex, UK).

Sirt5Zf = molecular target: T4, Sirt5Zf (Danio rerio, UniProt Q6DHI5); test: MS-based peptide deacylation assay, zebrafish Sirt5; format: biochemical; conditions: deacetylation, CPS1 peptide (Fig. S3)
T4 construct: zebrafish Sirt5 (residues 30- 298); 6x His tag with TEV protease cleavage site (N); made in house; host or cells: E. coli BL21DE3 Rosetta 2
T4 sequence (Q6DHI5 30-298): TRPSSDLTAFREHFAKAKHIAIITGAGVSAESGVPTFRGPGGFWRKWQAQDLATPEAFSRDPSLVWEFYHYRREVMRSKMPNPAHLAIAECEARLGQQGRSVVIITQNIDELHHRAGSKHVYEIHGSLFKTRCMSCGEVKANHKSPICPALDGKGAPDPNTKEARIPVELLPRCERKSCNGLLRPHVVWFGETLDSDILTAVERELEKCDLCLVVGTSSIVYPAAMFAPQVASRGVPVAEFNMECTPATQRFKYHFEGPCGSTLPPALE
Protocol: as §1

Sir2Af2-Met70Arg = Sir2Af2-Met70Arg (Archaeoglobus fulgidus, UniProt O30124, M70R); test: MS-based peptide deacylation assay, Sir2Af2-Met70Arg variant; conditions: for IC50: IC50 nicotinamide inhibition
Protocol: as §1

human Sirt5 [2] = molecular target: T5, human Sirt5 (human, UniProt Q9NXA8 37-310, labelled with fluorescein isothiocyanate (sites not given)); test: MST; ligand (peptide) titrated to 100 nM fluorescein-labelled Sirtuin; mixtures preincubated 30 min at room temperature; Monolith NT.115; non-linear fitting in GraFit; conditions: both partners purified
T5 construct: Sirt5, human; a 'gene fragment' cloned into pET151/D-Topo
T5 sequence (looked up): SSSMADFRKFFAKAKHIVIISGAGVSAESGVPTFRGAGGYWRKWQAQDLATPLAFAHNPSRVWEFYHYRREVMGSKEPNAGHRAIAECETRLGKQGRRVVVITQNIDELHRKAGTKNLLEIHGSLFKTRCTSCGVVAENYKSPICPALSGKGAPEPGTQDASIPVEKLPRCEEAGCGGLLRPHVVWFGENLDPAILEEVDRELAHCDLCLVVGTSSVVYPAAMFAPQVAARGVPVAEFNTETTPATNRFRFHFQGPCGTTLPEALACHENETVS

[3] = 25 µM substrate peptide, read-out: Kd for NAD^+ under peptide saturation
[4] = in presence of 0.5 mM nicotinamide, read-out: Kd(NAD^+)
[5] = no nicotinamide, no peptide, read-out: Kd(NAD^+)
[6] = read-out: normalized deacetylation [%]

Sequence of Sir2Af2-Met70Arg (O30124 whole entry M70R): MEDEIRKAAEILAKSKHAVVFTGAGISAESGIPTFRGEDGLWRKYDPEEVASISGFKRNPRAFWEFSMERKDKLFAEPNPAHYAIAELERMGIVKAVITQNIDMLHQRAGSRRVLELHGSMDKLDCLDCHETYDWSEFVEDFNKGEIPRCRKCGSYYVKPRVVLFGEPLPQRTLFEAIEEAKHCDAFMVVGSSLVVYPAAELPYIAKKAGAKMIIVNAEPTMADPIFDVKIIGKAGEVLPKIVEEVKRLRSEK

Question: Which Kd (human Sirt5 [1]; [3]) does the source give for `NC(=O)c1ccc[n+]([C@@H]2O[C@H](COP(=O)([O-])OP(=O)(O)OC[C@H]3O[C@@H](n4cnc5c(N)ncnc54)[C@H](O)[C@@H]3O)[C@@H](O)[C@H]2O)c1` [NAD^+] here?
Answer: Its Kd is 200 ± 70 µM.

Question: And the Kd (human Sirt5 [1]; [4])?
Answer: Its Kd is 920 ± 230 µM.

Question: And the Kd (human Sirt5 [1]; [5])?
Answer: The Kd was 980 ± 280 µM.

Question: What about the Km (Sirt3) of the same molecule?
Answer: The Km was 100 to 600 µM.

Question: And the Kd (human Sirt3; [3])?
Answer: The Kd was 260 ± 150 µM.

Question: And the Kd (human Sirt3; [4])?
Answer: The Kd was 830 ± 240 µM.

Question: And the Kd (human Sirt3; [5])?
Answer: Its Kd is 710 ± 230 µM.

Question: For `NC(=O)c1cccnc1` [nicotinamide], which IC50 (Sir2Af2; acetyl-CPS1 substrate) is on record?
Answer: Its IC50 is 5800 ± 1600 µM.

Question: What about the IC50 (Sir2Af2; acetyl-Prx1 substrate) of the same molecule?
Answer: Its IC50 is 1300 ± 300 µM.

Question: What about the IC50 (Sir2Af2; deacetylation, p53 peptide (Fig. S3)) of the same molecule?
Answer: The IC50 was 2100 ± 150 µM.

Question: And the IC50 (Sir2Af2; succinyl-CPS1 substrate)?
Answer: The IC50 was 6600 ± 500 µM.

Question: And the IC50 (Sir2Af2; succinyl-Prx1 substrate)?
Answer: Its IC50 is greater than 10000 µM.

Question: And the remaining activity at 1 µM (Sir2Af2; NAM 1 µM, acetylated Prx1-Lys197, wt, read-out: normalized deacetylation [%])?
Answer: The remaining activity at 1 µM was 88.7%.

Question: And the “normalized desuccinylation [%]” value (Sir2Af2; NAM 1 µM, wt)?
Answer: Its value is 100.0%.

Question: What about the remaining activity at 10 µM (Sir2Af2; NAM 10 µM, acetylated Prx1-Lys197, wt, read-out: normalized deacetylation [%]) of the same molecule?
Answer: The remaining activity at 10 µM was 101%.

Question: And the “normalized desuccinylation [%]” value (Sir2Af2; NAM 10 µM, wt)?
Answer: The value was 96.1%.

Question: What about the remaining activity at 100 µM (Sir2Af2; NAM 100 µM, acetylated Prx1-Lys197, wt, read-out: normalized deacetylation [%]) of the same molecule?
Answer: The remaining activity at 100 µM was 93%.

Question: And the “normalized desuccinylation [%]” value (Sir2Af2; NAM 100 µM, wt)?
Answer: The value was 95.7%.

Question: What about the remaining activity at 500 µM (Sir2Af2; NAM 500 µM, acetylated Prx1-Lys197, wt, read-out: normalized deacetylation [%]) of the same molecule?
Answer: The remaining activity at 500 µM was 65.4%.

Question: What about the remaining activity at 1000 µM (Sir2Af2; NAM 1000 µM, acetylated Prx1-Lys197, wt, read-out: normalized deacetylation [%]) of the same molecule?
Answer: The remaining activity at 1000 µM was 49.8%.

Question: And the “normalized desuccinylation [%]” value (Sir2Af2; NAM 1000 µM, wt)?
Answer: The value was 88.3%.

Question: What about the remaining activity at 5000 µM (Sir2Af2; NAM 5000 µM, acetylated Prx1-Lys197, wt, read-out: normalized deacetylation [%]) of the same molecule?
Answer: Its remaining activity at 5000 µM is 30.4%.

Question: What about the “normalized desuccinylation [%]” value (Sir2Af2; NAM 5000 µM, wt) of the same molecule?
Answer: Its value is 78.1%.

Question: What about the “normalized desuccinylation [%]” value (Sir2Af2; NAM 10000 µM, wt) of the same molecule?
Answer: The value was 69.1%.

Question: What about the IC50 (Sirt5Zf) of the same molecule?
Answer: Its IC50 is 6900 ± 500 µM.

Question: And the IC50 (Sir2Af2-Met70Arg; deacetylase activity, acetylated Prx1-Lys197)?
Answer: Its IC50 is greater than 10000 µM.

Question: And the IC50 (Sir2Af2-Met70Arg; desuccinylase activity, succinylated Prx1-Lys197)?
Answer: The IC50 was 2800 ± 900 µM.

Question: What about the remaining activity at 1 µM (Sir2Af2-Met70Arg; [6]) of the same molecule?
Answer: Its remaining activity at 1 µM is 100%.

Question: And the remaining activity at 10 µM (Sir2Af2-Met70Arg; [6])?
Answer: Its remaining activity at 10 µM is 98.1%.

Question: And the remaining activity at 100 µM (Sir2Af2-Met70Arg; [6])?
Answer: Its remaining activity at 100 µM is 96.1%.

Question: What about the remaining activity at 500 µM (Sir2Af2-Met70Arg; [6]) of the same molecule?
Answer: Its remaining activity at 500 µM is 69.7%.

Question: What about the remaining activity at 1000 µM (Sir2Af2-Met70Arg; [6]) of the same molecule?
Answer: The remaining activity at 1000 µM was 86.4%.

Question: And the remaining activity at 5000 µM (Sir2Af2-Met70Arg; [6])?
Answer: Its remaining activity at 5000 µM is 71.4%.

Question: And the remaining activity at 10000 µM (Sir2Af2-Met70Arg; [6])?
Answer: The remaining activity at 10000 µM was 52.6%.

B1: CPS1-Lys527 peptide (FKRGVL(acK)EYGVKV) (peptide)
peptide: FKRGVLK(Ac)EYGVKV
notes: carbamoyl phosphate synthetase 1 (CPS1), stretch around the acetylation site Lys527; also called CPS1 peptide; source: synthetic peptide, bought: GL Biochem (Shanghai)
Question: With B1 as the molecule, how does the Kd (human Sirt5 [2]) read?
Answer: Its Kd is 2.3 ± 1.5 µM.

B2: ACS2-Lys642 peptide (TRSG(acK)VMR) (peptide)
peptide: TRSGK(Ac)VMR
notes: acetyl-CoA synthetase 2 (ACS2), stretch around the acetylation site Lys642; also called ACS2 peptide; source: synthetic peptide, bought: GL Biochem (Shanghai)
Question: Which Kd (human Sirt5 [2]) does the source give for B2 here?
Answer: Its Kd is 2.1 ± 0.7 µM.
